Source: patent US4724237A, “2-substituted-aminomethyl-1,4-benzodiazepines” (Merck & Co., Inc., priority 1984, dated 1988)
Counter-ions that a name gives are not always drawn. Like-named read-outs stand apart in the source and are kept apart here. Square brackets hold non-standard residues; d marks the D form. Peptide text beside a SMILES is read from it. * marks the point of attachment. sY = N[C@@H](Cc1ccc(OS(=O)(=O)O)cc1)C(=O)O; Cbz = O=C(OCc1ccccc1)*; Boc = CC(C)(C)OC(=O)*

How the values were obtained:
kappa receptor = details: D. Roemer et al., Nature, 298, 759 (1982); cited from earlier work
rats = details: J. E. Morley et al.; cited from earlier work
[1] = in words; cited from earlier work
CCK-receptor = details: structure-function studies, in words; cited from earlier work
CCK receptor (pancreas) = target: T1, CCK receptor (pancreas) (Rattus norvegicus, UniProt P30551); assay: CCK receptor binding (pancreas) method, inhibition of ^125 I-CCK-33 binding; design: species or system male Sprague-Dawley rat; details: for effect on the ^125 I-CCK receptor binding assay: additional protease inhibitors in the assay buffer
T1 construct: The whole pancreas of a male Sprague-Dawley rat (200-350 g); from tissue; host or cells: whole pancreas of male Sprague-Dawley rat, washed membrane homogenate
T1 sequence (P30551 1-444): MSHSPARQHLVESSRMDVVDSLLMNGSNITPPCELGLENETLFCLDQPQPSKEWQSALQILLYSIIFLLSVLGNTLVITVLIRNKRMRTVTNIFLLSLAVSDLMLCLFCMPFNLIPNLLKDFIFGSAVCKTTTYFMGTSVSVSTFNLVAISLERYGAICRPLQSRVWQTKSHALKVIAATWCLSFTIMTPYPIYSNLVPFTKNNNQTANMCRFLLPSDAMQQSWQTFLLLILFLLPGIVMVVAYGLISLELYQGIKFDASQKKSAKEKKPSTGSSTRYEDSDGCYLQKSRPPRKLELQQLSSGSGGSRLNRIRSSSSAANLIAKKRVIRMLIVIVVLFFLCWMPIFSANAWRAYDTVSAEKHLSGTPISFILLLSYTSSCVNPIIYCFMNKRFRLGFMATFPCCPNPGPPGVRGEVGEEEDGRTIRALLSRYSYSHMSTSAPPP
Description: (§1) Screening of the novel compounds according to the present invention to determine biological activity and obtain an IC50 value for them, in order to identify significant CCK-antagonism, may be accomplished using an ^125 I-CCK receptor binding assay and in vitro isolated tissue preparations. These tests involve the following:
CCK receptor binding (pancreas) method
CCK-33 was radiolabeled with ^125 I-Bolton Hunter reagent (2000 Ci/mmole), as described by Sankara et al. (J. Biol. Chem., 254, 9349-9351, 1979).
The whole pancreas of a male Sprague-Dawley rat (200-350 g), which had been sacrificed by decapitation, was dissected free of fat tissue and homogenized in 20 volumes of ice-cold 50 mM Tris HCl (pH 7.7 at 25° C.) with a Brinkmann Polytron PT-10. The homogenates were centrifuged at 48,000 g for 10 minutes, then the resulting pellets were resuspended in Tris Buffer, centrifuged as above, and resuspended in 200 volumes of binding assay buffer (50 mM Tris HCl, pH 7.7 at 25° C., 5 mM dithiothreitol, 0.1 mM bacitracin, 1.2 mM phenylmethane sulfonyl fluoride and 0.5 mM o-phenanthroline).
All assays were run in duplicate or triplicate, and the reaction mixtures were incubated at 37° C. for 30 minutes and centrifuged in a Beckman Microfuge (4 minutes) immediately after adding 1 ml of ice-cold incubation buffer. The supernatant was aspirated and discarded, and the pellets were counted with a Beckman Gamma 5000.

CCK receptor (brain) = target: T2, CCK receptor (brain) (Cavia porcellus, UniProt H0VZC5); assay: CCK receptor binding (brain) method, inhibition of ^125 I-CCK-33 binding; design: species or system male Hartley guinea pig
T2 construct: The cerebral cortex was dissected and used as a receptor source; from tissue; host or cells: cerebral cortex of male Hartley guinea pig, membrane homogenate
T2 sequence (H0VZC5 entry or part of it): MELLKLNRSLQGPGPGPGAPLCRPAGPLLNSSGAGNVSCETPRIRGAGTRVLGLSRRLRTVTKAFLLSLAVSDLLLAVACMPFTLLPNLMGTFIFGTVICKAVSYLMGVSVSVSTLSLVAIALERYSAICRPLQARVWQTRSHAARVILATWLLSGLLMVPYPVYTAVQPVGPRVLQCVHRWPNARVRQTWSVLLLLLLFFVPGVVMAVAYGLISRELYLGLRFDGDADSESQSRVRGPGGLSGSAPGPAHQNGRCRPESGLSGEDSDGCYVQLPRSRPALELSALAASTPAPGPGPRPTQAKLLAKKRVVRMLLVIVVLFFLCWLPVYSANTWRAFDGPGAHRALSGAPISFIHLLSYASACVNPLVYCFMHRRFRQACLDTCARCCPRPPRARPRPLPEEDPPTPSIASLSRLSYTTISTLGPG
Procedure: as §1
CCK receptor binding (brain) method
CCK-33 was radiolabeled and the binding was performed according to the description for the pancreas method, with modifications according to Saito et al., J. Neurochem., 37, 483-490, 1981.
Male Hartley guinea pigs (300-500 g) were sacrificed by decapitation, and the brains were removed and placed in ice-cold 50 mM Tris HCl (Trizma-7.4)[pH 7.4 at 25° C.]. The cerebral cortex was dissected and used as a receptor source and each gram of fresh guinea pig brain tissue was homogenized in 10 ml of Tris/Trizma buffer with a Brinkman polytron PT-10. The homogenates were centrifuged at 42,000 g for 15 minutes, then the resulting pellets were resuspended in 80 volumes of binding assay buffer (10 mM N-2-hydroxy-ethyl-piperazine-N'-2-ethanesulfonic acid (HEPES), 5 mM MgCl2, 1 mM ethylene glycol-bis-(β-amino-ethyl-ether-N,N'-tetraacetic acid (EGTA), 0.4% BSA and 0.25 mg/ml bacitracin, pH 6.5).
The remainder of the binding assay method was as described for the pancreas method, except that the reaction mixtures were incubated at 25° C. for 2 hours before centrifugation.

[2] = concentration required to cause inhibition of 50% of the ^125 I-CCK binding, pancreas, 37° C., 30 minutes

| SMILES | IC50 (CCK receptor (pancreas); [2]) [µM] | IC50 (CCK receptor (brain); read-out: IC50 CCK, Brain) [µM] | IC50 (CCK receptor (pancreas)) [µM] | also measured |
| --- | --- | --- | --- | --- |
| CN1c2ccccc2C(c2ccccc2F)=NCC1CNC(=O)c1ccsc1 (stereo not drawn) |  |  |  | opiate agonism, selectivity for the kappa receptor (kappa receptor): opiate-agonist with selectivity for the kappa receptor; food intake (rats): increase food intake in rats |
| CN1c2ccccc2C(c2ccccc2F)=NCC1CNC(=O)c1ccsc1 (single isomer, unassigned; (-)) [(-)-enantiomer] |  |  |  | analgesic activity [1]: preferred for high analgesic activity |
| CSCC[C@H](NC(=O)OC(C)(C)C)C(=O)N[C@@H](CC(=O)O)C(=O)N[C@@H](Cc1ccccc1)C(N)=O [Boc-Met-Asp-Phe-NH2] (Boc-Met-Asp-Phe-NH2) |  |  |  | CCK antagonism (CCK-receptor): can function as CCK antagonists |
| CSCC[C@H](NC(=O)[C@H](Cc1ccc(OS(=O)(=O)O)cc1)NC(=O)OCc1ccccc1)C(=O)NCC(=O)N[C@@H](Cc1c[nH]c2ccccc12)C(=O)N[C@@H](CCSC)C(=O)N[C@@H](CC(=O)O)C(N)=O [Cbz-Tyr(SO3 H)-Met-Gly-Trp-Met-Asp-NH2] (Cbz-[sY]MGWMD-NH2) |  |  |  | CCK antagonism (CCK-receptor): can function as CCK antagonists |
| CN1c2ccccc2C(c2ccccc2F)=NCC1CNC(=O)c1cc2ccccc2[nH]1 (stereo not drawn) [Example 1, 1-methyl-2-(2'-indolecarbonyl)aminomethyl-5-(2'-fluorophenyl)-2,3-dihydro-1H-1,4,-benzodiazepine] | 0.16 | 14 |  |  |
| CN1c2ccccc2C(c2ccccc2F)=NCC1CNC(=O)Cc1cccc2sccc12 (stereo not drawn) [Example 2, 1-methyl-2-(4-thianaphthenemethylcarbonyl)aminomethyl-5-(2'-fluorophenyl)-2,3-dihydro-1H-1,4-benzodiazepine] | 0.45 |  |  | IC50 (CCK receptor (brain)): 23 µM |
| CN1c2ccccc2C(c2ccccc2F)=NCC1CNC(=O)[C@@H](O)c1ccccc1 (stereo partly drawn) [Example 3, 1-methyl-2-(2-L-hydroxy-2-phenylacetyl)aminomethyl-5-(2'-fluorophenyl)-2,3-dihydro-1H-1,4-benzodiazepine] |  | ~100 | 0.6 |  |
| CN1c2ccccc2C(c2ccccc2F)=NCC1CNC(=O)Cc1c[nH]c2ccccc12 (stereo not drawn) [Example 4, 1-methyl-2-(1H-indol-3-yl)methylcarbonylaminomethyl-5-(2'-fluorophenyl)-2,3-dihydro-1H-1,4-benzodiazepine hydrate] |  | 56 | 1 |  |
| COC(=O)[C@H](Cc1ccccc1)NCC1CN=C(c2ccccc2F)c2ccccc2N1C (stereo partly drawn) [Example 5, 1-methyl-2-[1-(S)-1-methoxycarbonyl-2-phenylethylamino]methyl-5-(2'-fluorophenyl)-2,3-dihydro-1H-1,4-benzodiazepine] |  | ~100 | 1.6 |  |
| CN1c2ccccc2C(c2ccccc2F)=NCC1CNc1cccc(C(F)(F)F)c1 (stereo not drawn) [Example 6, 1-methyl-2-(3'-trifluoromethylphenyl)aminomethyl-5-(2'-fluorophenyl)-2,3-dihydro-1H-1,4-benzodiazepine] |  | ~100 | 2.2 |  |
| CN1c2ccccc2C(c2ccccc2F)=NCC1CNC(=O)[C@H](Cc1c[nH]c2ccccc12)NC(=O)OC(C)(C)C (stereo partly drawn) [Example 7, 1-methyl-2-[2-((1,1-dimethylethoxy)carbonyl)amino-3-(1H-indol-3-yl)propanoyl]aminomethyl-5-(2'-fluorophenyl)-2,3-dihydro-1H-1,4-benzodiazepine] |  |  | 4.1 | IC50 (CCK receptor (brain)): 38.6 µM |
| CC(C)COC(=O)NCC1CN=C(c2ccccc2F)c2ccccc2N1C (stereo not drawn) [Example 8, 1-methyl-2-[(2-methylpropoxy)carbonyl]aminomethyl-5-(2'-fluorophenyl)-2,3-dihydro-1H-1,4-benzodiazepine] | 5.8 | ~100 |  |  |
| CN1c2ccccc2C(c2ccccc2F)=NCC1CNC(=O)[C@@H](N)Cc1c[nH]c2ccccc12 (stereo partly drawn) [Example 9, 1-methyl-2-[2-amino-3-(1H-indol-3-yl)propanoyl]aminomethyl-5-(2'-fluorophenyl)-2,3-dihydro-1H-1,4-benzodiazepine dihydrochloride sesquihydrate] |  |  | 11.6 | IC50 (CCK receptor (brain)): ~100 µM |
| COC(C(=O)NCC1CN=C(c2ccccc2F)c2ccccc2N1C)(c1ccccc1)C(F)(F)F (stereo not drawn) [Example 10, 1-methyl-2-(2-methoxy-2-trifluoromethyl-2-phenylacetyl)aminomethyl-5-(2'-fluorophenyl)-2,3-dihydro-1H-1,4-benzodiazepine] | 13 |  |  | IC50 (CCK receptor (brain)): ~100 µM |
| CC(=O)NCSCC(NC(=O)OC(C)(C)C)C(=O)NCC1CN=C(c2ccccc2F)c2ccccc2N1C [Example 11, 1-methyl-2-[2(S)-((1,1-dimethylethoxy)carbonyl)amino-3-acetamidomethylmercaptopropanoyl]aminomethyl-5-(2'-fluorophenyl)-2,3-dihydro-1H-1,4-benzodiazepine hemihydrate] |  |  | 24 |  |
| CN1c2ccccc2C(c2ccccc2F)=NCC1CNC(=O)CCC(=O)OCc1ccccc1 (stereo not drawn) [Example 12, 1-methy-2-benzoylsuccinoylaminomethyl-5-(2'-fluorophenyl)-2,3-dihydro-1H-1,4-benzodiazepine] | 45 |  |  | IC50 (CCK receptor (brain)): 55 µM |
| CC(=O)NCSCC(=O)NCC1CN=C(c2ccccc2F)c2ccccc2N1C (stereo not drawn) [Example 13, 1-methyl-2-(acetamidomethylmercaptoacetyl)aminomethyl-5-(2'-fluorophenyl-2,3-dihydro-1H-1,4-benzodiazepine hydrate] | 100 | ~100 |  |  |
| CN1c2ccccc2C(c2ccccc2F)NCC1CNC(=O)c1ccsc1 (stereo not drawn) [Example 14, 1-methyl-2-(3-thiophenecarbonyl)aminomethyl-5-(2'-fluorophenyl)-2,3,4,5-tetrahydro-1H-1,4-benzodiazepine] | 4.8 | ~100 |  |  |
| CSCC[C@H](N)C(=O)N[C@@H](CC(=O)O)C(=O)N[C@@H](Cc1ccccc1)C(N)=O [Met-Asp-Phe-NH2] (H-Met-Asp-Phe-NH2) |  |  |  | CCK antagonism (CCK-receptor): can function as CCK antagonists |
| CCCC(=O)Nc1nc2c(ncn2[C@@H]2O[C@@H]3COP(=O)(O)O[C@H]3[C@H]2OC(=O)CCC)c(=O)[nH]1 [dibutyryl cyclic GMP] |  |  |  | CCK antagonism (CCK-receptor): most potent |
| c1cnc2c(c1)ccc1cccnc12 [o-phenanthroline, reference compound] |  |  |  | effect on the ^125 I-CCK receptor binding assay (CCK receptor (pancreas)): no effect |
| O=S(=O)(F)Cc1ccccc1 [phenyl-methane sulfonyl fluoride, reference compound] |  |  |  | effect on the ^125 I-CCK receptor binding assay (CCK receptor (pancreas)): no effect |
